Source: patent publication US5688666A, “Growth hormone variants with altered binding properties” (Genentech, Inc., priority 1994, dated 1997)

Legend:
[1] = target: Mab 5 (monoclonal antibody to hGH); test: Binding of Mab 5 to hGH and hGH phagemid particles (ELISA); conditions: read-out: IC50 (concentration to give half-maximal binding to the Mab)
Experimental: (§1) After 2 hours at room temperature (rt), the plates were washed well and the indicated Mab (Cunningham et al. supra) was added at 1 μg/ml in buffer A for 2 hours at rt. Following washing, horseradish peroxidase conjugated goat anti-mouse IgG antibody was bound at rt for 1 hour. After a final wash, the peroxidase activity was assayed with the substrate, o-phenylenediamine.

[2] = target: Mab 2 (monoclonal antibody to hGH); test: Binding of Mab 2 to hGH and hGH phagemid particles (ELISA); conditions: read-out: IC50 (concentration to give half-maximal binding to the Mab)
Experimental: as §1

[3] = target: Mab 4 (monoclonal antibody to hGH); test: Binding of Mab 4 to hGH and hGH phagemid particles (ELISA); conditions: read-out: IC50 (concentration to give half-maximal binding to the Mab)
Experimental: as §1

[4] = target: Mab 1 (monoclonal antibody to hGH); test: Binding of Mab 1 to hGH and hGH phagemid particles (ELISA); conditions: read-out: IC50 (concentration to give half-maximal binding to the Mab)
Experimental: as §1

[5] = target: Mab 8 (monoclonal antibody to hGH); test: Binding of Mab 8 to hGH and hGH phagemid particles (ELISA); conditions: read-out: IC50 (concentration to give half-maximal binding to the Mab)
Experimental: as §1

[6] = target: Mab 3 (monoclonal antibody to hGH); test: Binding of Mab 3 to hGH and hGH phagemid particles (ELISA); conditions: read-out: IC50 (concentration to give half-maximal binding to the Mab)
Experimental: as §1

[7] = target: Mab 7 (monoclonal antibody to hGH); test: Binding of Mab 7 to hGH and hGH phagemid particles (ELISA); conditions: read-out: IC50 (concentration to give half-maximal binding to the Mab)
Experimental: as §1

[8] = target: Mab 6 (monoclonal antibody to hGH); test: Binding of Mab 6 to hGH and hGH phagemid particles (ELISA); conditions: read-out: IC50 (concentration to give half-maximal binding to the Mab)
Experimental: as §1

[9] = target: anti-β endorphin monoclonal antibody; conditions: cited from earlier work

IC50 [1] [nM] | IC50 [2] [nM] | IC50 [3] [nM] | IC50 [4] [nM] | IC50 [5] [nM] | IC50 [6] [nM] | IC50 [7] [nM] | IC50 [8] [nM] | Substance | Kd [9] [nM]
0.2 | 0.04 | 0.1 | 0.4 | 0.1 | 0.2 | 0.1 | 0.07 | Human growth hormone [hGH] | 
 |  |  |  |  |  |  |  | β-endorphin peptide: parent β-endorphin peptide sequence recognised by the anti-β endorphin monoclonal antibody | ~7
